From US9486475B2 (AMGEN RESEARCH (MUNICH) GMBH, priority 2013, dated 2016)

Experiments:
follicular lymphoma = experiment: Blinatumomab treatment of patient 109-036 (follicular lymphoma): CT tumor response; type: in vivo, human; conditions: Blinatumomab 5 μg/m^2/24 h for 1 week, then 60 μg/m^2/24 h, with PPS
Procedure: (§1) Patient was then treated for 7 weeks at 60 μg/m^2/24 h of Blinatumomab.
(§2) 6× CHOP 12/02-04/03 • 2. Induction according to Dexa-BEAM Protocol 05/03 • 3. Autologous SCT 08/03 • Date of last prior treatment: 08/03 • Treatment start: 10.5.2010 • Major Involvement: • 1. Supraclavicular • 2. Mediastinal • 3. Mesenterial (small intestinal involvement?) • 4W CT: PR -63% • 8W CT: CRu:-79% • EOS: 30.7.2010
(FL: follicular lymphoma, SCT: stem cell therapy, PR: partial remission, Cru: complete remission (unconfirmed), EOS: end of study).

B cell malignancies = conditions: human, in vivo; cited from earlier work
non-Hodgkin's lymphoma = conditions: cited from earlier work
[1] = test system: neurological adverse effects caused by a CD3 binding domain; experiment: PPS co-treatment of patient 109-036 during Blinatumomab start and dose escalation: neurological adverse effects; type: in vivo, human
Procedure: as §1, §2

[2] = continuous administration, non-Hodgkin's lymphoma patients

Substance	4W CT: change (follicular lymphoma; 4 weeks) [%]	8W CT: change (follicular lymphoma; 8 weeks) [%]	8W CT: response category (follicular lymphoma; 8 weeks)	Patients with an early neurological reaction (B cell malignancies)	Dose level at which partial and complete tumor regressions were first observed (non-Hodgkin's lymphoma; [2]) [milligrams/m^2/d]	Effect on tumor cells in bone marrow and liver (non-Hodgkin's lymphoma; [2])	Patients who experienced a tumor regression (non-Hodgkin's lymphoma; dose level of 0.06 milligrams/m^2/d)	Effect on lymphoma target cells in blood (non-Hodgkin's lymphoma; doses as low as 0.005 milligrams per square meter per day, continuous, four weeks)	Neurological reactions in the clinical trial (non-Hodgkin's lymphoma; human, in vivo)	Apraxia and aphasia ([1]; patient 109-036, low B:T cell ratio, PPS 100 mg i.v. bolus 3 h before treatment start and before dose increase (day 8), then 300 mg/24 h for 48 h, Blinatumomab 5 then 60 μg/m^2/24 h)	Tremor (remaining neurological adverse effect) ([1]; patient 109-036, PPS 100 mg i.v. bolus then 300 mg/24 h for 48 h, Blinatumomab escalation to 60 μg/m^2/24 h)
Blinatumomab	-63	-79	CRu	7 out of 22	0.015	clearance of tumor cells from bone marrow and liver	all seven	elimination of lymphoma target cells in blood	neurological reactions have been found		
β-D-Xylan, (1-4), 2,3-bis(hydrogen sulphate) [PPS]										prevented	slight tremor
